Test results taken from patent publication US9137997B2 (priority 2011, dated 2015).

melting point: 171 to 176 °C
SMILES: Cc1ccc2sc3c(=O)n(C)c(=O)c=3sc2c1
